The assay addresses T1, HpxO (Klebsiella pneumoniae, UniProt A6T923).
T1 sequence (A6T923 1-384): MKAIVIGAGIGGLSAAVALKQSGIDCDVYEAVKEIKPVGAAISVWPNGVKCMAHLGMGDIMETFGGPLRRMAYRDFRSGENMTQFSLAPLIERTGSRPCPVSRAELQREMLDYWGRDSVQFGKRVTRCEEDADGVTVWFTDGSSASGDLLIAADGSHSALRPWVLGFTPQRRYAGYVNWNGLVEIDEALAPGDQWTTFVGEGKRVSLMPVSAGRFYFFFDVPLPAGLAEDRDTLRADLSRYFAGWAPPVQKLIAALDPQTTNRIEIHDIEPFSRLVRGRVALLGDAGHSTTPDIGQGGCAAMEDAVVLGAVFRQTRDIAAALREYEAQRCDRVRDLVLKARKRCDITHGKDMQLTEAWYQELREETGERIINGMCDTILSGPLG
In words: X-ray crystal structure, […] Å. It is filed as binding. Particulars: SeMet HpxO without uric acid; FAD in the in conformation.

Regarding `Cc1cc2nc3c(=O)[nH]c(=O)nc-3n(C[C@H](O)[C@H](O)[C@H](O)COP(=O)(O)OP(=O)(O)OC[C@H]3O[C@@H](n4cnc5c(N)ncnc54)[C@H](O)[C@@H]3O)c2cc1C` [FAD], the “X-ray crystal structure, 2.2 Å” value is “One FAD molecule binds to the HpxO monomer in an extended conformation”.
